Experiments:
KB = assay: Antiproliferative activity against human KB cells; assay type: functional, cell-based
HepG2 = assay: Antiproliferative activity against human HepG2 cells; assay type: functional, cell-based
A549 = assay: Antiproliferative activity against human A549 cells; assay type: functional, cell-based
[1] = Cytotoxicity against human HEK293 cells; assay type: toxicity, cell-based
[2] = Selectivity ratio of IC50 for human HEK293 cells to IC50 for human KB cells; assay type: toxicity; settings: HEK293 cells versus KB cells, read-out: Ratio IC50
[3] = Selectivity ratio of IC50 for human HEK293 cells to IC50 for human HepG2 cells; assay type: toxicity; settings: HEK293 cells versus HepG2 cells, read-out: Ratio IC50
[4] = Selectivity ratio of IC50 for human HEK293 cells to IC50 for human A549 cells; assay type: toxicity; settings: HEK293 cells versus A549 cells, read-out: Ratio IC50

Row | SMILES | IC50 (KB) | IC50 (HepG2) | IC50 (A549) | IC50 [1] | selectivity ratio [2] | selectivity ratio [3] | selectivity ratio [4]
1 | C[C@@H]1CC[C@H]2[C@@H](C)C(=O)N(Cc3cn(-c4ccccc4I)nn3)[C@@H]3O[C@@]4(C)CC[C@@H]1[C@@]23OO4 | 34.1 µM | 49.3 µM | 27.7 µM |  |  |  | 
2 | C[C@@H]1CC[C@H]2[C@@H](C)C(=O)N(Cc3cn(-c4ccccc4Br)nn3)[C@@H]3O[C@@]4(C)CC[C@@H]1[C@@]23OO4 | 32.3 µM | 42.5 µM | 32.9 µM |  |  |  | 
3 | C[C@@H]1CC[C@H]2[C@@H](C)C(=O)N(Cc3cn(-c4ccc(I)cc4)nn3)[C@@H]3O[C@@]4(C)CC[C@@H]1[C@@]23OO4 | 10.3 µM | 31.3 µM | 9.2 µM | 12.4 µM |  |  | 
4 | C[C@@H]1CC[C@H]2[C@@H](C)C(=O)N(Cc3cn(-c4cccc(F)c4)nn3)[C@@H]3O[C@@]4(C)CC[C@@H]1[C@@]23OO4 | > 280 µM | > 280 µM | > 280 µM |  |  |  | 
5 | Cc1c2ccncc2c(C)c2c1[nH]c1ccccc12 [ELLIPTECINE] | 1.7 µM | 1.7 µM | 1.7 µM | 6.3 µM |  |  | 
6 | C[C@@H]1CC[C@H]2[C@@H](C)C(=O)N(Cc3cn(-c4cccc(Br)c4)nn3)[C@@H]3O[C@@]4(C)CC[C@@H]1[C@@]23OO4 | 7.7 µM | 42.5 µM | 15.5 µM | > 247 µM | 32 | 6 | 16
7 | C[C@@H]1CC[C@H]2[C@@H](C)C(=O)N(Cc3cn(-c4cccc(I)c4)nn3)[C@@H]3O[C@@]4(C)CC[C@@H]1[C@@]23OO4 | 10.6 µM | 9.4 µM | 135 µM | 46.3 µM | 4 | 5 | 
8 | C[C@@H]1CC[C@H]2[C@@H](C)C(=O)N(Cc3cn(-c4ccc(Br)cc4)nn3)[C@@H]3O[C@@]4(C)CC[C@@H]1[C@@]23OO4 | 26.4 µM | 34.9 µM | 45.9 µM |  |  |  | 
9 | C[C@@H]1CC[C@H]2[C@@H](C)C(=O)N(Cc3cn(-c4cccc(Cl)c4)nn3)[C@@H]3O[C@@]4(C)CC[C@@H]1[C@@]23OO4 | 235 µM | 215 µM | 151 µM |  |  |  | 

From ChEMBL document CHEMBL6083221, “11-Azaartemisinin derivatives bearing halogenated aromatic moieties: Potent anticancer agents with high tumor selectivity” (Bioorg Med Chem Lett, 2024)
